Test: Vapor pressure by the gas flow method (OECD guideline)
Assay type: physicochemical
Conditions: head: 20° C.; text: gas flow method at 25° C.
Method: Chemical structure, relation with a target insect and carbon number of each component are listed in the pest control of the pear and peach in Japan. The vapor pressure was measured by the gas flow method at 25° C. according to the “Addendum to the OECD chemical test guideline, issues 7 and 8” (Adopted on Jul. 27, 1995).

SMILES	Vapor pressure (20° C.) (Pa)
CCC(C)CCCCCCCCCOC(C)=O (stereo not drawn) [10-methyldodecyl acetate]	0.186
C=CCCCCCCCCCCOC(C)=O [11-dodecenyl acetate]	0.246
CCC/C=C\CCCCCCCO [Z-8-dodecene-1-ol]	0.980
CCC/C=C\CCCCCCCOC(C)=O [Z-8-dodecenyl acetate]	0.267
CC/C=C\CCCCCCCCOC(C)=O [Z-9-dodecenyl acetate]	0.267
CCCC/C=C\CCCCCCCCOC(C)=O [Z-9-tetradecenyl acetate]	0.100
CC/C=C\CCCCCCCCCCO [Z-11-tetradecene-1-ol]	0.070
CC/C=C\CCCCCCCCCCOC(C)=O [Z-11-tetradecenyl acetate]	0.100
CCCCCC/C=C\CCC(=O)CCCCCCCCC [Z-13-icosen-10-one]	0.005
